The text below walks through data of PMC11191687.

Data set [1] is described as follows: as series A (acyl azide from hydrazide, biphasic EtOAc/buffer), isolated after prep HPLC. To be noted: aq phosphate buffer (6 M GdmCl) / EtOAc biphasic, 3.0 mM, 0.25 h, 2 steps.
The nature of data set [2]: head-to-tail lactamisation of unprotected peptide acyl azide (from C-terminal hydrazide, 20 equiv NaNO2, pH 3, -15 C, then NaHCO3 to pH ~7), biphasic EtOAc/buffer. To be noted: aq phosphate buffer (6 M GdmCl, 50 mM NaH2PO4, 1.5 mM EDTA) / EtOAc biphasic, 3.0 mM, 2 steps.
The nature of data set [3]: lactamisation (head-to-tail or side-chain-to-tail) of unprotected peptide acyl azide (from hydrazide, 20 equiv NaNO2, pH 3, -15 C, then NaHCO3 to pH ~7), MeCN cosolvent. The settings on record: aq phosphate buffer (6 M GdmCl) diluted with 2 vol 50% MeCN/water, 2.2 mM, 2 steps.

Consider `C=CC[C@@H]1NC(=O)[C@H](CC(C)C)N(C)C(=O)[C@H](C(C)C)NC(=O)[C@H](Cc2ccccc2)NC(=O)[C@H](C)NC(=O)[C@H](CC(C)C)N(C)C(=O)[C@H](Cc2cn(C)c3ccccc23)NC1=O` [H-Trp(1-Me)-N-Me-Leu-Ala-Phe-Val-N-Me-Leu-allylGly-N3], for which the ring closure, yield over several steps in data set [1] (from C=CC[C@H](NC(=O)[C@H](CC(C)C)N(C)C(=O)[C@@H](NC(=O)[C@H](Cc1ccccc1)NC(=O)[C@H](C)NC(=O)[C@H](CC(C)C)N(C)C(=O)[C@@H](N)Cc1cn(C)c2ccccc12)C(C)C)C(=O)N=[N+]=[N-], 21-membered ring) was determined as 50%. The ring closure, conversion by HPLC in data set [2] (from C=CC[C@H](NC(=O)[C@H](CC(C)C)N(C)C(=O)[C@@H](NC(=O)[C@H](Cc1ccccc1)NC(=O)[C@H](C)NC(=O)[C@H](CC(C)C)N(C)C(=O)[C@@H](N)Cc1cn(C)c2ccccc12)C(C)C)C(=O)N=[N+]=[N-], 21-membered ring, 0.25 h) was 75%.
In data set [1] (from C=CC(C)(C)n1cc(C[C@H](N)C(=O)N(C)[C@@H](CC(C)C)C(=O)N[C@@H](Cc2ccc(O)c([N+](=O)[O-])c2)C(=O)N[C@@H](C)C(=O)N(C)[C@@H](CC(C)C)C(=O)N[C@@H](CC(C)C)C(=O)N[C@@H](Cc2ccccc2)C(=O)N=[N+]=[N-])c2ccccc21, 21-membered ring), `C=CC(C)(C)n1cc(C[C@@H]2NC(=O)[C@H](Cc3ccccc3)NC(=O)[C@H](CC(C)C)NC(=O)[C@H](CC(C)C)N(C)C(=O)[C@H](C)NC(=O)[C@H](Cc3ccc(O)c([N+](=O)[O-])c3)NC(=O)[C@H](CC(C)C)N(C)C2=O)c2ccccc21` showed a ring closure, yield over several steps of 22%. For the same compound, in data set [2] (from C=CC(C)(C)n1cc(C[C@H](N)C(=O)N(C)[C@@H](CC(C)C)C(=O)N[C@@H](Cc2ccc(O)c([N+](=O)[O-])c2)C(=O)N[C@@H](C)C(=O)N(C)[C@@H](CC(C)C)C(=O)N[C@@H](CC(C)C)C(=O)N[C@@H](Cc2ccccc2)C(=O)N=[N+]=[N-])c2ccccc21, 21-membered ring, 0.25 h), the ring closure, conversion by HPLC is 63%.
With `C=CC[C@@H]1NC(=O)[C@H](CC(C)C)NC(=O)[C@H](CC(C)C)N(C)C(=O)[C@H](C)NC(=O)[C@H](Cc2ccc(O)c([N+](=O)[O-])c2)NC(=O)[C@H](CC(C)C)N(C)C(=O)[C@H](Cc2cn(C(C)(C)C=C)c3ccccc23)NC1=O`, the ring closure, yield over several steps in data set [1] (from C=CC[C@H](NC(=O)[C@H](CC(C)C)NC(=O)[C@H](CC(C)C)N(C)C(=O)[C@H](C)NC(=O)[C@H](Cc1ccc(O)c([N+](=O)[O-])c1)NC(=O)[C@H](CC(C)C)N(C)C(=O)[C@@H](N)Cc1cn(C(C)(C)C=C)c2ccccc12)C(=O)N=[N+]=[N-], 21-membered ring) was found to be 56%. Also, the ring closure, conversion by HPLC in data set [3] (from C=CC[C@H](NC(=O)[C@H](CC(C)C)NC(=O)[C@H](CC(C)C)N(C)C(=O)[C@H](C)NC(=O)[C@H](Cc1ccc(O)c([N+](=O)[O-])c1)NC(=O)[C@H](CC(C)C)N(C)C(=O)[C@@H](N)Cc1cn(C(C)(C)C=C)c2ccccc12)C(=O)N=[N+]=[N-], 21-membered ring, 0.27 h) was 90%.
Consider `CC[C@@H]1NC(=O)[C@H](CC(C)C)N(C)C(=O)[C@H](C(C)C)N(C)C(=O)[C@H](CC(C)C)N(C)C(=O)[C@H](CC(C)C)N(C)C(=O)[C@@H](C)NC(=O)[C@H](C)NC(=O)[C@H](CC(C)C)N(C)C(=O)[C@H](C(C)C)NC(=O)[C@H](CC(C)C)N(C)C(=O)CN(C)C1=O`, for which, in data set [1] (from CC[C@H](NC(=O)[C@H](CC(C)C)N(C)C(=O)[C@H](C(C)C)N(C)C(=O)[C@H](CC(C)C)N(C)C(=O)[C@H](CC(C)C)N(C)C(=O)[C@@H](C)N)C(=O)N(C)CC(=O)N(C)[C@@H](CC(C)C)C(=O)N[C@H](C(=O)N(C)[C@@H](CC(C)C)C(=O)N[C@@H](C)C(=O)N=[N+]=[N-])C(C)C, 33-membered ring), the ring closure, yield over several steps was found to be 22%. Also, the ring closure, conversion by HPLC in data set [2] (from CC[C@H](NC(=O)[C@H](CC(C)C)N(C)C(=O)[C@H](C(C)C)N(C)C(=O)[C@H](CC(C)C)N(C)C(=O)[C@H](CC(C)C)N(C)C(=O)[C@@H](C)N)C(=O)N(C)CC(=O)N(C)[C@@H](CC(C)C)C(=O)N[C@H](C(=O)N(C)[C@@H](CC(C)C)C(=O)N[C@@H](C)C(=O)N=[N+]=[N-])C(C)C, 33-membered ring, 0.25 h) is 61%.
`C=CC[C@@H]1NC(=O)[C@H](CC(C)C)NC(=O)[C@H](CC(C)C)N(C)C(=O)[C@H]([C@@H](C)O)NC(=O)[C@H](Cc2ccc(O)c([N+](=O)[O-])c2)NC(=O)[C@H](CC(C)C)N(C)C(=O)[C@H](Cc2c[nH]c3ccccc23)NC1=O` [H-Trp-N-Me-Leu-Tyr(3-NO2)-Thr-N-Me-Leu-Leu-allylGly-N3] showed a ring closure, yield over several steps in data set [1] (from C=CC[C@H](NC(=O)[C@H](CC(C)C)NC(=O)[C@H](CC(C)C)N(C)C(=O)[C@@H](NC(=O)[C@H](Cc1ccc(O)c([N+](=O)[O-])c1)NC(=O)[C@H](CC(C)C)N(C)C(=O)[C@@H](N)Cc1c[nH]c2ccccc12)[C@@H](C)O)C(=O)N=[N+]=[N-], 21-membered ring) of 35%. In addition, the ring closure, conversion by HPLC in data set [2] (from C=CC[C@H](NC(=O)[C@H](CC(C)C)NC(=O)[C@H](CC(C)C)N(C)C(=O)[C@@H](NC(=O)[C@H](Cc1ccc(O)c([N+](=O)[O-])c1)NC(=O)[C@H](CC(C)C)N(C)C(=O)[C@@H](N)Cc1c[nH]c2ccccc12)[C@@H](C)O)C(=O)N=[N+]=[N-], 21-membered ring, 0.25 h) stood at 78%.
The compound `C=CC(C)(C)n1cc(C[C@@H]2NC(=O)[C@H](C/C=C/C)NC(=O)[C@H](CC(C)C)NC(=O)[C@H](CC(C)C)N(C)C(=O)[C@H](C)NC(=O)[C@H](Cc3ccc(O)c([N+](=O)[O-])c3)NC(=O)[C@H](CC(C)C)N(C)C2=O)c2ccccc21` registered a ring closure, yield over several steps in data set [1] (from C=CC(C)(C)n1cc(C[C@H](N)C(=O)N(C)[C@@H](CC(C)C)C(=O)N[C@@H](Cc2ccc(O)c([N+](=O)[O-])c2)C(=O)N[C@@H](C)C(=O)N(C)[C@@H](CC(C)C)C(=O)N[C@@H](CC(C)C)C(=O)N[C@@H](C/C=C/C)C(=O)N=[N+]=[N-])c2ccccc21, 21-membered ring) of 39%. The ring closure, conversion by HPLC in data set [2] (from C=CC(C)(C)n1cc(C[C@H](N)C(=O)N(C)[C@@H](CC(C)C)C(=O)N[C@@H](Cc2ccc(O)c([N+](=O)[O-])c2)C(=O)N[C@@H](C)C(=O)N(C)[C@@H](CC(C)C)C(=O)N[C@@H](CC(C)C)C(=O)N[C@@H](C/C=C/C)C(=O)N=[N+]=[N-])c2ccccc21, 21-membered ring, 0.25 h) worked out at 84%.
As to `CC(C)C[C@@H]1NC(=O)[C@H](CC(C)C)N(C)C(=O)[C@H](C)NC(=O)[C@H](Cc2ccc(O)c([N+](=O)[O-])c2)NC(=O)[C@H](CC(C)C)N(C)C(=O)[C@H](Cc2c[nH]c3ccccc23)NC(=O)[C@H](C)NC1=O` [H-Trp-N-Me-Leu-Tyr(3-NO2)-Ala-N-Me-Leu-Leu-Ala-N3], in data set [1] (from CC(C)C[C@H](NC(=O)[C@H](CC(C)C)N(C)C(=O)[C@H](C)NC(=O)[C@H](Cc1ccc(O)c([N+](=O)[O-])c1)NC(=O)[C@H](CC(C)C)N(C)C(=O)[C@@H](N)Cc1c[nH]c2ccccc12)C(=O)N[C@@H](C)C(=O)N=[N+]=[N-], 21-membered ring), the ring closure, yield over several steps is 52%. For the same compound, the ring closure, conversion by HPLC in data set [2] (from CC(C)C[C@H](NC(=O)[C@H](CC(C)C)N(C)C(=O)[C@H](C)NC(=O)[C@H](Cc1ccc(O)c([N+](=O)[O-])c1)NC(=O)[C@H](CC(C)C)N(C)C(=O)[C@@H](N)Cc1c[nH]c2ccccc12)C(=O)N[C@@H](C)C(=O)N=[N+]=[N-], 21-membered ring, 0.25 h) amounted to 87%.
`CC[C@H](C)[C@@H]1NC(=O)CNC(=O)[C@H](CO)NC(=O)[C@@H]2CCCN2C(=O)[C@H](C(C)C)NC(=O)[C@@H]2CCCN2C(=O)CNC(=O)[C@H](Cc2ccccc2)NC1=O` [H-Pro-Val-Pro-Ser-Gly-Ile-Phe-Gly-N3]: the ring closure, conversion by HPLC in data set [3] (from CC[C@H](C)[C@H](NC(=O)CNC(=O)[C@H](CO)NC(=O)[C@@H]1CCCN1C(=O)[C@@H](NC(=O)[C@@H]1CCCN1)C(C)C)C(=O)N[C@@H](Cc1ccccc1)C(=O)NCC(=O)N=[N+]=[N-], 24-membered ring, 1.67 h) was 58%.
On to `C=CC[C@@H]1NC(=O)[C@H](CC(C)C)NC(=O)[C@H](CC(C)C)N(C)C(=O)[C@H](C)NC(=O)[C@H](Cc2ccc(O)c([N+](=O)[O-])c2)NC(=O)[C@H](CC(C)C)N(C)C(=O)[C@@H](Cc2cn(C)c3ccccc23)NC1=O`, for which the ring closure, conversion by HPLC in data set [2] (from C=CC[C@H](NC(=O)[C@H](CC(C)C)NC(=O)[C@H](CC(C)C)N(C)C(=O)[C@H](C)NC(=O)[C@H](Cc1ccc(O)c([N+](=O)[O-])c1)NC(=O)[C@H](CC(C)C)N(C)C(=O)[C@H](N)Cc1cn(C)c2ccccc12)C(=O)N=[N+]=[N-], 21-membered ring) turned out to be 95%.
